Measurements reported in patent publication US5571518A, “Cosmetic compositions containing tricholine citrate” (priority 1995, dated 1996).

Assays:
Format in all cases: cell-based
[1] = Signs of cytotoxicity in / tolerance by keratinocytes; details: human, 24 hours exposure, read-out: concentration at which cells showed signs of cytotoxicity
Procedure: Effects of 24 hours exposure to 0.1 μM to 10 mM of citric acid, choline or the different citrate esters on keratinocyte DNA synthesis are shown in table 1. Rate of DNA synthesis calculated as cpm ^3 H thymidine incorporated into cellular DNA/μg of cell protein is expressed as % of control (no addition controls) ±SD. The actual amount of cpm/μg protein of the control is 1103 ±88.

[2] = tested on: human keratinocytes; assay: Cornified envelope (CE) formation, marker of terminal differentiation of keratinocytes; details: Homo sapiens, Keratinocyte, read-out: CE Levels
Procedure: (§1) Human keratinocytes, isolated from neonatal foreskin by trypsin treatment were grown in Dulbecco Modification Eagle (DME) Hams F12 (3:1) medium/5% fetal calf serum in the presence of mitomycin C treated 3T3 mouse fibroblasts for establishing dividing keratinocyte colonies. Cells were grown under the above condition until their second passage and kept frozen for future use. Frozen second passage keratinocytes were thawed and plated into the above medium and grown for five days. On day 5, when the cells were 70-80% confluent, they were trypsinized and plated in the serum-free medium for the various experiments.
During the process of terminal differentiation in the epidermis, a 15 nm thick layer of protein, known as the cornified envelope (CE)is formed on the inner surface of the cell periphery. The CE is composed of numerous distinct proteins which have been cross-linked together by the formation of N ^ε -(-γ-glutamyl) lysine isodipeptide bonds catalyzed by the action of at least two different transglutaminases expressed in the epidermis. Transglutaminase (TG-1) is expressed in abundance in the differentiated layers of the epidermis, especially the granular layer, but is absent in the undifferentiated basal epidermis. Thus, TG-1 is a useful marker of epidermal keratinocyte differentiation with high TG-1 levels indicating a more differentiated state. An ELISA based TG-1 assay, using a TG-1 antibody, was used to assess the state of differentiation of the cultured keratinocytes in the examples that follow.
Proper skin conditioning require enhanced proliferation and differentiation of epidermal keratinocytes. The different citrate esters were tested on their effect on cornified envelope (CE) formation, a marker of terminal differentiation of keratinocytes. Citrate esters were tested at 1 mM levels in medium containing 0.15 mM Ca. Levels are expressed as % of control ±SD. The CE formation for the control was 54.48 ±31.8 cpm/μg cell protein.

[3] = tested on: human keratinocytes; assay: cells; details: Keratinocyte, five days, choline-free medium, ±SD, * statistically significant, read-out: Protein
Procedure: as §1
(§2) 4. The medium was aspirated, and the wells washed with 1 ml phosphate-buffered saline. The DNA and proteins of the cells in the plate were then precipitated by adding 1 ml of ice-cold 10% trichloroacetic acid (TCA). The plates were left on ice for 30 minutes to complete the precipitation process. TCA was then aspirated and each well was then washed four times with 5% TCA. The plates were then dried on a filter pad and the cells in the wells were dissolved in 0.5 ml of 0.1N sodium hydroxide. The sodium hydroxide was then neutralized using 0.1N hydrochloric acid and the solution (1 ml total volume) was then transferred to a scintillation vial. 50 μl samples from each vial were used for protein assay using BCA protein assay reagent obtained from Pierce Chemical Company. 8 ml of a scintillation fluid (Ecolume) was added to the rest of the solution in the vial, and the vials were counted in a scintillation counter to determine the amount of radioactivity in each vial. The DNA synthesis rate was then calculated as cpm ^3 H thymidine incorporated into total cellular DNA/microgram of cell protein for each individual well. Mean and standard deviation for each group was also calculated.
(§3) The aged epidermis may be choline deficient due to the decreased capillary circulation to the skin. To simulate the choline-deficient in vitro system, keratinocytes were plated in complete medium and 48 hours later switched to choline-free medium. The cells were then grown for five days in the choline-free medium with or without addition of different amounts of choline or TCC. To determine whether TCC can provide choline for keratinocyte proliferation under these conditions, on day 5, the amount of ^3 H thymidine incorporation into DNA was determined as in the previous experiment. The protein content of the wells were also quantitated. Both these parameters were expressed as % of control ±SD.

[4] = tested on: human keratinocytes; assay: DNA synthesis (3H thymidine incorporation) in keratinocytes in choline-free medium; details: Keratinocyte
Procedure: as §1
The incorporation of ^3 H-thymidine by cultured keratinocytes was used as an assay of keratinocyte proliferation. Thymidine is one of four deoxynucleosides which are the monomeric units of DNA, the universal library of genetic information in the animal kingdom. Prior to cell division of a somatic cell such as a keratinocyte, the complete genome of the cell undergoing cell division is replicated. This involves large scale DNA synthesis by the cell and enables both daughter cells to receive identical copies of the genetic material. When ^3 H-thymidine is included in the culture media of keratinocytes which are synthesizing DNA in preparation for cell division then the labelled nucleoside is incorporated into the newly synthesized DNA. The extent of incorporation of ^3 H-thymidine into a population of cells is proportional to the rate of DNA synthesis by this population of cells and therefore an indication of their cellular proliferation.
as §2, §3

[5] = 1 mM, medium containing 0.15 mM Ca, ±SD, * statistically significant effects

CCOC(=O)CC(O)(CC(=O)OCC)C(=O)OCC [TEC, triethylcitrate]
MCC at 24 h [1]: ≥ 1 mM
activity at 1000 µM [2, 5]: 18.6 ± 4.2%

CCCCOC(=O)CC(O)(CC(=O)OCCCC)C(=O)OCCCC [TBC, tributylcitrate]
MCC at 24 h [1]: ≥ 1 mM
activity at 1000 µM [2, 5]: 23.6 ± 2.1%

C[N+](C)(C)CCO [Choline, choline]
activity at 1 µM ([3]; 120 h, 1 μM): 197 ± 21.8%
activity at 10 µM ([3]; 120 h, 10 μM): 264 ± 50%
activity at 100 µM ([3]; 120 h, 100 μM): 276 ± 52%
activity at 1000 µM ([3]; 120 h, 1000 μM): 229 ± 29%
activity at 10000 µM ([3]; 120 h, 10,000 μM): 209 ± 13.7%
activity at 1 µM ([4]; 120 h, 1 μM, five days, choline-free medium, ±SD, * statistically significant): 261 ± 5.6%
activity at 10 µM ([4]; 120 h, 10 μM, five days, choline-free medium, ±SD, * statistically significant): 313 ± 11.4%
activity at 100 µM ([4]; 120 h, 100 μM, five days, choline-free medium, ±SD, * statistically significant): 315 ± 29.3%
activity at 1000 µM ([4]; 120 h, 1000 μM, five days, choline-free medium, ±SD, * statistically significant): 297 ± 11.3%
activity at 10000 µM ([4]; 120 h, 10,000 μM, five days, choline-free medium, ±SD, * statistically significant): 270 ± 11.2%
minimal effective concentration ([4]; read-out: lowest concentration that increased proliferation (both DNA synthesis and protein content)): 1 µM
activity at 1000 µM [2]: 135 ± 23.6%
